Reference: ChEMBL document CHEMBL3091441, “Ligand modifications to reduce the relative resistance of multi-drug resistant HIV-1 protease” (Bioorg Med Chem, 2013)
*1 amine or outer side, *2 acyl side, *3 side chain or, on linkers, in order; H or OH if unused. Where a SMILES comes first, the peptide text is derived from it. Side-chain parts run from the residue outwards. [ ]: non-standard residue; d: D form. N(2S-amino-4-Me-pentyl)Phe = CC(C)C[C@@H](CN([C@@H](Cc1ccccc1)C(=O)[*:2])[*:1])N[*:3]; N(2S-NH-3-Ph-propyl)Phe = O=C([C@H](Cc1ccccc1)N(C[C@H](Cc1ccccc1)N[*:3])[*:1])[*:2]; Nle = CCCC[C@H](N)C(=O)O

Tests used:
[1] = Inhibition of HIV-1 multidrug-resistant protease 769 preincubated for 20 mins by FRET analysis; set-up: species or system Human immunodeficiency virus 1
[2] = tested on: Human immunodeficiency virus 1; test: Ratio of IC50 for HIV-1 multidrug-resistant protease 769 to IC50 for HIV-1 NL4-3 wild type protease
[3] = target: Protease (Human immunodeficiency virus 1, UniProt Q9YQ12); test: Inhibition of HIV-1 NL4-3 wild type protease expressed in Escherichia coli preincubated for 20 mins by FRET analysis
Chain of Protease (Q9YQ12 whole entry): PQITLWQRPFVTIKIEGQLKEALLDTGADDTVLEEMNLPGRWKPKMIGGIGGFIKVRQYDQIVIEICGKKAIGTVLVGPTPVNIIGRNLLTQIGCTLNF

Structure (SMILES) | IC50 [1] | Ratio IC50 [2] | IC50 [3]
Cc1cccc(C)c1OCC(=O)N[C@@H](Cc1ccccc1)[C@@H](O)C[C@H](CC(C)C)NC(=O)[C@H](C(C)C)N1CCCNC1=O | 6.8 nM | 3.2 | 2.1 nM
CCCC[C@H](NC(=O)CNC(=O)[C@H](CCC(=O)O)NC(=O)[C@H](Cc1ccccc1)NC[C@H](Cc1ccccc1)NC(=O)[C@@H](NC(=O)[C@@H](N)CCCNC(=N)N)C(C)C)C(=O)O (H-[N(2S-NH-3-Ph-propyl)Phe]([Val-Arg])EG[Nle]-OH) | 142 nM | 4.6 | 30.7 nM
CCCC[C@H](NC(=O)CNC(=O)[C@H](CCC(=O)O)NC(=O)[C@H](Cc1ccccc1)NC[C@H](CC(C)C)NC(=O)[C@@H](NC(=O)[C@@H](N)CCCNC(=N)N)C(C)C)C(=O)O (H-[N(2S-amino-4-Me-pentyl)Phe]([Val-Arg])EG[Nle]-OH) | 4.4 nM | 1.7 | 2.6 nM
Cc1cccc(C)c1OCC(=O)N[C@@H](Cc1ccccc1)[C@@H](O)C[C@H](Cc1ccccc1)NC(=O)[C@H](C(C)C)N1CCCNC1=O [LOPINAVIR] | 16 nM | – | –
